Test system: recombinant T. vaginalis cysteine synthase (CS)
Experiment: coupled assay with MGL1 and LDH, NADH oxidation at […] nm
Assay type: biochemical, Trichomonas vaginalis
Details: 200 mM potassium phosphate pH 7.8, 37°C

Compound	Km (SMC synthase reaction, 10 mM OPS) [mM]	Km (cysteine synthase reaction, 3 mM Na2S) [mM]
CS [CH3SNa]	4.3 ± 1.6	
N[C@@H](COP(=O)(O)O)C(=O)O [OPS]		18.2 ± 0.8

— article PMC5739422, “Metabolomic profiling and stable isotope labelling of Trichomonas vaginalis and Tritrichomonas foetus reveal major differences in amino acid metabolism including the production of 2-hydroxyisocaproic acid, cystathionine and S-methylcysteine” (PLoS ONE, 2017)
